Source: PMC7822874, “Chemoprotective antimalarials identified through quantitative high-throughput screening of Plasmodium blood and liver stage parasites” (Scientific Reports, 2021)
Where two headings read alike, the source gives them in different places.

What was measured:
in vitro = details: human, HepG2-A16-CD81EGFP cells, uninfected
[1] = system: P. berghei-ANKA-GFP-LucCON liver stage parasites in HepG2-A16-CD81EGFP cells; test: P. berghei liver stage Pb-Luc assay, Method 1 (UCSD, 1536-well); assay type: cell-based, Plasmodium berghei; details: Plasmodium berghei, 48 h, average of 2 wells on a 1536 well plate
[2] = system: luciferase-expressing P. berghei liver stage parasites in HepG2 cells; test: Inhibition of liver-stage development assay (ILSDA), Method 2 (WRAIR, 96-well); assay type: cell-based, Plasmodium berghei; details: for Max Resp (signal direction of the dose response): Method 2, Decrease = decreasing P. berghei viability with dose, Increase = increasing signal, Inactive = no dose response; for AC50: Plasmodium berghei, HepG2, Method 2
[3] = system: Plasmodium falciparum Dd2 asexual blood stage parasites; test: microbe, parasite or virus in culture; parameters: species or system Plasmodium falciparum Dd2 in human erythrocytes; single determination (one 11-point concentration-response curve); details: Plasmodium falciparum, DD2, Erythrocyte, 72 h; read-out: AC50
HepG2-A16-CD81EGFP cells = details: average of 2 wells
[4] = 1 uM (compounds provided at 10 mM), column 11, read-out: Pb-Luc (P. berghei liver stage), % of control, lower concentration, first repeat
[5] = 1 uM (compounds provided at 10 mM), column 12, read-out: Pb-Luc (P. berghei liver stage), % of control, lower concentration, second repeat
[6] = 3 uM (compounds provided at 10 mM), column 8, read-out: Pb-Luc (P. berghei liver stage), % of control, higher concentration, first repeat
[7] = 3 uM (compounds provided at 10 mM), column 9, read-out: Pb-Luc (P. berghei liver stage), % of control, higher concentration, second repeat
[8] = Hill fit, 50% of maximum activity response, read-out: AC50
[9] = log10 of molar AC50 from Hill fit, read-out: Log AC50 (converted)

Row | SMILES | viability at 48 h, 1 µM (in vitro) [%] | viability at 48 h, 3 µM (in vitro) [%] | activity at 1 µM [1, 4] [%] | activity at 1 µM [1, 5] [%] | activity at 3 µM [1, 6] [%] | activity at 3 µM [1, 7] [%] | Max Resp (signal direction of the dose response) [2] | AC50 [3] [nM] | AC50 [2, 8] [nM] | AC50 [2, 9] [nM] | activity at 1 µM ([1]; P. berghei liver stage, 1 µM compound treatment (10 mM stocks), replicate 1, normalized, read-out: PbLuc 1uM growth rep1) [%] | activity at 1 µM ([1]; P. berghei liver stage, 1 µM compound treatment (10 mM stocks), replicate 2, normalized, read-out: PbLuc 1uM growth rep2) [%] | activity at 3 µM ([1]; P. berghei liver stage, 3 µM compound treatment (10 mM stocks), replicate 1, normalized, read-out: PbLuc 3uM growth rep1) [%] | activity at 3 µM ([1]; P. berghei liver stage, 3 µM compound treatment (10 mM stocks), replicate 2, normalized, read-out: PbLuc 3uM growth rep2) [%] | HepG2 1uM growth rep1 (HepG2-A16-CD81EGFP cells; HepG2, 1 µM compound treatment (10 mM stocks), replicate 1, normalized) [%] | HepG2 1uM growth rep2 (HepG2-A16-CD81EGFP cells; HepG2, 1 µM compound treatment (10 mM stocks), replicate 2, normalized) [%] | HepG2 3uM growth rep1 (HepG2-A16-CD81EGFP cells; HepG2, 3 µM compound treatment (10 mM stocks), replicate 1, normalized) [%] | HepG2 3uM growth rep2 (HepG2-A16-CD81EGFP cells; HepG2, 3 µM compound treatment (10 mM stocks), replicate 2, normalized) [%]
1 | Cc1ccc2c(c1)[nH]c1c(N3CCN(Cc4ccccc4)CC3)ncnc12 [MLS000041320-01] | 82 | 88 | 23 | 17 | 5.3 | 4 | Inactive | – | – | – | – | – | – | – | – | – | – | –
2 | N=c1c2c(n(Cc3ccccc3)c3c1CCC3)CCC2 [MLS000080128-01] | 98 | 74 | – | – | – | – | Inactive | 4220 | – | – | – | – | – | – | – | – | – | –
3 | CCOC(=O)c1c[nH]c2c3c(ccc2c1=O)CCCC3 [MLS000085191-01] | 98 | 106 | – | – | – | – | Increase | – | – | – | – | – | – | – | – | – | – | –
4 | CC(C)(C)C1CCc2[nH]c3ccccc3c(=O)c2C1 (centres unmarked) [MLS000109039-01] | 89 | 88 | – | – | – | – | Decrease | 1880 | 282 | 282 | – | – | – | – | – | – | – | –
5 | Cc1cc(Nc2ccc(Br)c(C)c2)n2nc(C)nc2n1 [MLS000116638-01] | – | – | – | – | – | – | Decrease | 1330 | 794 | 794 | 32 | 25 | 9 | 12 | 91 | 87 | 86 | 89
6 | O=C(CCc1ccccc1)NC(c1cccs1)c1cc(Cl)c2cccnc2c1O (centres unmarked) [MLS000703748-01] | 113 | 51 | – | – | – | – | Inactive | – | – | – | – | – | – | – | – | – | – | –
7 | N=c1c2ccccc2nnn1-c1ccc(C(F)(F)F)cc1 [MLS000707013-01] | 91 | 101 | 23 | 19 | 12 | 10 | Decrease | 3760 | 708 | 708 | – | – | – | – | – | – | – | –
8 | COc1ccc(C2=Nn3c([n+](C)c4ccccc43)SC2)cc1 [MLS000717833-01] | 83 | 63 | – | – | – | – | Decrease | – | 11200 | 11200 | – | – | – | – | – | – | – | –
9 | CCn1cc(C(=O)O)c(=O)c2cnc(N3CCN(/C(S)=N/c4ccccc4)CC3)nc21 [MLS000777921-01] | 113 | 102 | 25 | 24 | 3.25 | 2.6 | Decrease | 3760 | 2000 | 2000 | – | – | – | – | – | – | – | –
10 | O=C(Nc1ccc(N2CCN(c3ncccc3C(F)(F)F)CC2)nc1)c1cccs1 [MLS000862045-01] | 105 | 95 | – | – | – | – | Decrease | – | 447 | 447 | – | – | – | – | – | – | – | –
